Reference: the supplement of paper PMC10307832

Experiments:
Assay in all cases: relative viability (nuclei count vs DMSO), 5 days (fraction); higher = more cells survive
201T = system: 201T
Outline: (§1)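 After 5 days of treatment, lung cancer cells in 1536-well plates were fixed and stained in a single step (final 0.05% Triton X-100, 1% formaldehyde, 1 ug/ml Hoechst) and their nuclei counted on 4× images. Treatment had been applied by pin tool the day after seeding as one drug alone or as a fixed anchor-drug dose with five library-drug doses (not always all listed) in √10 steps. Relative viability is the nuclei count of treated wells divided by that of vehicle wells, and values are medians of duplicate plates.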

A-427 = system: A-427
Outline: as §1

COR-L 105 = system: COR-L 105
Outline: as §1

COR-L23 = system: COR-L23
Outline: as §1

EKVX = system: EKVX
Outline: as §1

HARA = system: HARA
Outline: as §1

HCC-15 = system: HCC-15
Outline: as §1

HCC-44 = system: HCC-44
Outline: as §1

HCC-827 = system: HCC-827
Outline: as §1

LCLC-103H = system: LCLC-103H
Outline: as §1

LK-2 = system: LK-2
Outline: as §1

NCI-H1437 = system: NCI-H1437
Outline: as §1

NCI-H1666 = system: NCI-H1666
Outline: as §1

NCI-H1792 = system: NCI-H1792
Outline: as §1

NCI-H1975 = system: NCI-H1975
Outline: as §1

NCI-H23 = system: NCI-H23
Outline: as §1

NCI-H441 = system: NCI-H441
Outline: as §1

NCI-H520 = system: NCI-H520
Outline: as §1

NCI-H596 = system: NCI-H596
Outline: as §1

NCI-H650 = system: NCI-H650
Outline: as §1

NCI-H838 = system: NCI-H838
Outline: as §1

SK-MES-1 = system: SK-MES-1
Outline: as §1

Q: For `CC(C)Oc1cc(Nc2nc(N[C@@H](C)c3ccc(F)cn3)ncc2Cl)n[nH]1` [AZ23] + CS(=O)(=O)N1CCN(Cc2cc3nc(-c4cccc5[nH]ncc45)nc(N4CCOCC4)c3s2)CC1 [Pictilisib] (partner 1 µM), which relative viability (201T; first compound 0.01 µM) is on record?
A: 0.685

Q: What about the relative viability (201T; first compound 0.03162 µM) of the same molecule?
A: 0.683

Q: And the relative viability (201T; first compound 0.3162 µM)?
A: 0.69

Q: What about the relative viability (A-427; first compound 0.01 µM) of the same molecule?
A: 0.819

Q: What about the relative viability (A-427; first compound 0.03162 µM) of the same molecule?
A: 0.716

Q: What about the relative viability (A-427; first compound 0.3162 µM) of the same molecule?
A: 0.62

Q: What about the relative viability (COR-L 105; first compound 0.01 µM) of the same molecule?
A: 0.407

Q: What about the relative viability (COR-L 105; first compound 0.03162 µM) of the same molecule?
A: 0.417

Q: And the relative viability (COR-L 105; first compound 0.3162 µM)?
A: 0.383

Q: What about the relative viability (COR-L23; first compound 0.01 µM) of the same molecule?
A: 0.587

Q: What about the relative viability (COR-L23; first compound 0.03162 µM) of the same molecule?
A: 0.947

Q: And the relative viability (COR-L23; first compound 0.3162 µM)?
A: 0.862

Q: And the relative viability (EKVX; first compound 0.01 µM)?
A: 0.481

Q: What about the relative viability (EKVX; first compound 0.03162 µM) of the same molecule?
A: 0.466

Q: What about the relative viability (EKVX; first compound 0.3162 µM) of the same molecule?
A: 0.444

Q: What about the relative viability (HARA; first compound 0.01 µM) of the same molecule?
A: 0.421

Q: And the relative viability (HARA; first compound 0.03162 µM)?
A: 0.373

Q: And the relative viability (HARA; first compound 0.3162 µM)?
A: 0.282

Q: What about the relative viability (HCC-15; first compound 0.01 µM) of the same molecule?
A: 0.968

Q: And the relative viability (HCC-15; first compound 0.03162 µM)?
A: 0.73

Q: And the relative viability (HCC-15; first compound 0.3162 µM)?
A: 0.782

Q: And the relative viability (HCC-44; first compound 0.01 µM)?
A: 0.727

Q: And the relative viability (HCC-44; first compound 0.03162 µM)?
A: 0.629

Q: And the relative viability (HCC-44; first compound 0.3162 µM)?
A: 0.572

Q: What about the relative viability (HCC-827; first compound 0.01 µM) of the same molecule?
A: 1.11

Q: And the relative viability (HCC-827; first compound 0.03162 µM)?
A: 0.978

Q: And the relative viability (HCC-827; first compound 0.3162 µM)?
A: 1.11

Q: What about the relative viability (LCLC-103H; first compound 0.01 µM) of the same molecule?
A: 0.571

Q: And the relative viability (LCLC-103H; first compound 0.03162 µM)?
A: 0.555

Q: And the relative viability (LCLC-103H; first compound 0.3162 µM)?
A: 0.533

Q: What about the relative viability (LK-2; first compound 0.03162 µM) of the same molecule?
A: 0.499

Q: And the relative viability (LK-2; first compound 0.3162 µM)?
A: 0.59

Q: What about the relative viability (NCI-H1437; first compound 0.01 µM) of the same molecule?
A: 0.374

Q: And the relative viability (NCI-H1437; first compound 0.03162 µM)?
A: 0.389

Q: And the relative viability (NCI-H1437; first compound 0.3162 µM)?
A: 0.46

Q: What about the relative viability (NCI-H1666; first compound 0.01 µM) of the same molecule?
A: 0.51

Q: What about the relative viability (NCI-H1666; first compound 0.03162 µM) of the same molecule?
A: 0.559

Q: What about the relative viability (NCI-H1666; first compound 0.3162 µM) of the same molecule?
A: 0.417

Q: What about the relative viability (NCI-H1792; first compound 0.01 µM) of the same molecule?
A: 0.248

Q: And the relative viability (NCI-H1792; first compound 0.03162 µM)?
A: 0.291

Q: And the relative viability (NCI-H1792; first compound 0.3162 µM)?
A: 0.302

Q: And the relative viability (NCI-H1975; first compound 0.01 µM)?
A: 0.307

Q: And the relative viability (NCI-H1975; first compound 0.03162 µM)?
A: 0.327

Q: What about the relative viability (NCI-H1975; first compound 0.3162 µM) of the same molecule?
A: 0.298

Q: What about the relative viability (NCI-H23; first compound 0.03162 µM) of the same molecule?
A: 0.543

Q: And the relative viability (NCI-H23; first compound 0.3162 µM)?
A: 0.448

Q: And the relative viability (NCI-H441; first compound 0.01 µM)?
A: 0.658

Q: What about the relative viability (NCI-H441; first compound 0.03162 µM) of the same molecule?
A: 0.601

Q: And the relative viability (NCI-H441; first compound 0.3162 µM)?
A: 0.457

Q: And the relative viability (NCI-H520; first compound 0.01 µM)?
A: 0.327

Q: What about the relative viability (NCI-H520; first compound 0.03162 µM) of the same molecule?
A: 0.309

Q: What about the relative viability (NCI-H520; first compound 0.3162 µM) of the same molecule?
A: 0.304

Q: What about the relative viability (NCI-H596; first compound 0.01 µM) of the same molecule?
A: 0.359

Q: And the relative viability (NCI-H596; first compound 0.03162 µM)?
A: 0.342

Q: What about the relative viability (NCI-H596; first compound 0.3162 µM) of the same molecule?
A: 0.397

Q: And the relative viability (NCI-H650; first compound 0.01 µM)?
A: 0.841

Q: And the relative viability (NCI-H650; first compound 0.03162 µM)?
A: 0.869

Q: And the relative viability (NCI-H650; first compound 0.3162 µM)?
A: 1.1

Q: And the relative viability (NCI-H838; first compound 0.01 µM)?
A: 0.467

Q: And the relative viability (NCI-H838; first compound 0.03162 µM)?
A: 0.464

Q: What about the relative viability (NCI-H838; first compound 0.3162 µM) of the same molecule?
A: 0.51

Q: What about the relative viability (SK-MES-1; first compound 0.01 µM) of the same molecule?
A: 0.329

Q: And the relative viability (SK-MES-1; first compound 0.03162 µM)?
A: 0.358

Q: And the relative viability (SK-MES-1; first compound 0.3162 µM)?
A: 0.387
